Patent US11168364B2, “Method and system for sequencing nucleic acids” (priority 2016, dated 2021)

Molecular target: T1, Bsu DNA polymerase large fragment / primed template nucleic acid (Bacillus subtilis, UniProt O34996)
T1 construct: 350 U/ml Bsu DNA polymerase large fragment
T1 sequence (O34996 297-880 limits assumed): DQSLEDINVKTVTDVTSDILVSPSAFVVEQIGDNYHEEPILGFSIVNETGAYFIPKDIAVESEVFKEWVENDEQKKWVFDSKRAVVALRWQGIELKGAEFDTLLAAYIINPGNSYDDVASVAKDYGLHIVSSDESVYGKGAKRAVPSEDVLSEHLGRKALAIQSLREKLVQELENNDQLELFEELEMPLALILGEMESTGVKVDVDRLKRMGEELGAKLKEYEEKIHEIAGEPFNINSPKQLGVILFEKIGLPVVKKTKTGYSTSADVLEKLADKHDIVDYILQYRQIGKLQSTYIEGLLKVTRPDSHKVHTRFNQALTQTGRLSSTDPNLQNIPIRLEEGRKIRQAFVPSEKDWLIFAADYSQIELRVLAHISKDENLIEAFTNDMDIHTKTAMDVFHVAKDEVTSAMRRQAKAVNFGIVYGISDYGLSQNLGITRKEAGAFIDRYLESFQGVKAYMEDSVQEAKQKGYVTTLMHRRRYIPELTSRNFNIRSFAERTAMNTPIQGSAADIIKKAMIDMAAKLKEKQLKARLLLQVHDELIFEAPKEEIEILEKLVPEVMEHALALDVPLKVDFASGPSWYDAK
Assay: Biolayer interferometry of polymerase binding to immobilized primed template with cognate or non-cognate nucleotide, salt titration (Example 19)
Details: for Ternary Complex Signal (Δλ, nm): dCTP (cognate); for Binary Complex Signal (Δλ, nm): dGTP (non-cognate)
From the text: A FORTEBIO® (Menlo Park, Calif.) OCTET® instrument employing biolayer interferometry to measure binding reactions at the surface of a fiber optic tip was used in a multiwell plate format to investigate differential stability of binary and ternary complexes. Template strands biotinylated at their 5′-ends were used to immobilize the primed template nucleic acid onto fiber optic tips functionalized with streptavidin (SA) according to standard procedures. […] Tips were first equilibrated in a Tris-buffered solution containing 30 mM Tris-HCl (pH 8.0), and 0.1 mM EDTA before commencing the cycling protocol. Independent binding reactions for the two test nucleotides (i.e., cognate and non-cognate nucleotides) were carried out in the presence of concentrations of NaCl, KCl, or potassium glutamate that varied from 50 mM to 500 mM. […] In all instances, the reaction mixture used during the examination step contained Tris-HCl (pH 8.0), 0.01% Tween-20, 100 μg/ml BSA, 2 mM NiSO4, 350 U/ml Bsu DNA polymerase large fragment; and one of the nucleotides at a concentration of 100 μM (dCTP was used as a cognate nucleotide, and dGTP was used as a non-cognate nucleotide). Following each examination step, tips were exposed to a buffer containing 30 mM Tris-HCl (pH 8.0), 500 mM KCl, 2 mM EDTA and 0.05% Tween-20 for 20 seconds to strip enzyme complexes from the primed template nucleic acid. The stripping step was followed by a 15 second exposure to examination buffer without enzyme, dNTP or divalent cations to regenerate tips for the next cycle of examination. When using a single contacting step to effect binding of polymerase and nucleotide to the primed template nucleic acid, the binding step was 45 seconds long, with binding interactions being monitored continuously. This was accomplished by contacting the primed template nucleic acid with a single solution that included the polymerase and test nucleotide. Results from interferometry monitoring were analyzed to identify formation of ternary complexes (i.e., identifying cognate nucleotide) or binary complexes (i.e., identifying non-cognate nucleotide).

[1] = KCl 50 mM + fixed 160 mM potassium glutamate
[2] = KCl 75 mM + fixed 160 mM potassium glutamate
[3] = KCl 100 mM + fixed 160 mM potassium glutamate
[4] = KCl 125 mM + fixed 160 mM potassium glutamate
[5] = KCl 150 mM + fixed 160 mM potassium glutamate
[6] = KCl 175 mM + fixed 160 mM potassium glutamate
[7] = KCl 200 mM + fixed 160 mM potassium glutamate
[8] = KCl 225 mM + fixed 160 mM potassium glutamate
[9] = KCl 250 mM + fixed 160 mM potassium glutamate
[10] = KCl 275 mM + fixed 160 mM potassium glutamate
[11] = KCl 300 mM + fixed 160 mM potassium glutamate
[12] = KCl 325 mM + fixed 160 mM potassium glutamate
[13] = KCl 350 mM + fixed 160 mM potassium glutamate
[14] = KCl 375 mM + fixed 160 mM potassium glutamate
[15] = KCl 400 mM + fixed 160 mM potassium glutamate
[16] = KCl 425 mM + fixed 160 mM potassium glutamate
[17] = KCl 450 mM + fixed 160 mM potassium glutamate
[18] = KCl 475 mM + fixed 160 mM potassium glutamate
[19] = KCl 500 mM + fixed 160 mM potassium glutamate

[Cl-].[K+] [KCl]
Fold Enhancement (Ternary/Binary) (KCl 50 mM): 1.03
Fold Enhancement (Ternary/Binary) [1]: 1.24
Ternary Complex Signal (Δλ, nm) [1]: 1.57 nm
Binary Complex Signal (Δλ, nm) [1]: 1.27 nm
Ternary Complex Signal (Δλ, nm) (KCl 50 mM): 2.98 nm
Binary Complex Signal (Δλ, nm) (KCl 50 mM): 2.90 nm
Fold Enhancement (Ternary/Binary) (KCl 75 mM): 0.97
Fold Enhancement (Ternary/Binary) [2]: 1.41
Ternary Complex Signal (Δλ, nm) [2]: 1.49 nm
Binary Complex Signal (Δλ, nm) [2]: 1.06 nm
Ternary Complex Signal (Δλ, nm) (KCl 75 mM): 2.59 nm
Binary Complex Signal (Δλ, nm) (KCl 75 mM): 2.68 nm
Fold Enhancement (Ternary/Binary) (KCl 100 mM): 1.00
Fold Enhancement (Ternary/Binary) [3]: 1.71
Ternary Complex Signal (Δλ, nm) [3]: 1.52 nm
Binary Complex Signal (Δλ, nm) [3]: 0.89 nm
Ternary Complex Signal (Δλ, nm) (KCl 100 mM): 2.29 nm
Binary Complex Signal (Δλ, nm) (KCl 100 mM): 2.29 nm
Fold Enhancement (Ternary/Binary) (KCl 125 mM): 0.98
Fold Enhancement (Ternary/Binary) [4]: 2.05
Ternary Complex Signal (Δλ, nm) [4]: 1.44 nm
Binary Complex Signal (Δλ, nm) [4]: 0.70 nm
Ternary Complex Signal (Δλ, nm) (KCl 125 mM): 1.93 nm
Binary Complex Signal (Δλ, nm) (KCl 125 mM): 1.98 nm
Fold Enhancement (Ternary/Binary) (KCl 150 mM): 1.00
Fold Enhancement (Ternary/Binary) [5]: 2.46
Ternary Complex Signal (Δλ, nm) [5]: 1.40 nm
Binary Complex Signal (Δλ, nm) [5]: 0.57 nm
Ternary Complex Signal (Δλ, nm) (KCl 150 mM): 1.67 nm
Binary Complex Signal (Δλ, nm) (KCl 150 mM): 1.67 nm
Fold Enhancement (Ternary/Binary) (KCl 175 mM): 0.99
Fold Enhancement (Ternary/Binary) [6]: 3.31
Ternary Complex Signal (Δλ, nm) [6]: 1.30 nm
Binary Complex Signal (Δλ, nm) [6]: 0.39 nm
Ternary Complex Signal (Δλ, nm) (KCl 175 mM): 1.41 nm
Binary Complex Signal (Δλ, nm) (KCl 175 mM): 1.43 nm
Fold Enhancement (Ternary/Binary) (KCl 200 mM): 1.08
Fold Enhancement (Ternary/Binary) [7]: 4.15
Ternary Complex Signal (Δλ, nm) [7]: 1.19 nm
Binary Complex Signal (Δλ, nm) [7]: 0.29 nm
Ternary Complex Signal (Δλ, nm) (KCl 200 mM): 1.30 nm
Binary Complex Signal (Δλ, nm) (KCl 200 mM): 1.20 nm
Fold Enhancement (Ternary/Binary) (KCl 225 mM): 1.17
Fold Enhancement (Ternary/Binary) [8]: 5.35
Ternary Complex Signal (Δλ, nm) [8]: 1.12 nm
Binary Complex Signal (Δλ, nm) [8]: 0.21 nm
Ternary Complex Signal (Δλ, nm) (KCl 225 mM): 1.20 nm
Binary Complex Signal (Δλ, nm) (KCl 225 mM): 1.03 nm
Fold Enhancement (Ternary/Binary) (KCl 250 mM): 1.35
Fold Enhancement (Ternary/Binary) [9]: 7.02
Ternary Complex Signal (Δλ, nm) [9]: 0.98 nm
Binary Complex Signal (Δλ, nm) [9]: 0.14 nm
Ternary Complex Signal (Δλ, nm) (KCl 250 mM): 1.11 nm
Binary Complex Signal (Δλ, nm) (KCl 250 mM): 0.82 nm
Fold Enhancement (Ternary/Binary) (KCl 275 mM): 1.51
Fold Enhancement (Ternary/Binary) [10]: 9.07
Ternary Complex Signal (Δλ, nm) [10]: 0.88 nm
Binary Complex Signal (Δλ, nm) [10]: 0.10 nm
Ternary Complex Signal (Δλ, nm) (KCl 275 mM): 1.02 nm
Binary Complex Signal (Δλ, nm) (KCl 275 mM): 0.67 nm
Fold Enhancement (Ternary/Binary) (KCl 300 mM): 2.04
Fold Enhancement (Ternary/Binary) [11]: 8.34
Ternary Complex Signal (Δλ, nm) [11]: 0.76 nm
Binary Complex Signal (Δλ, nm) [11]: 0.09 nm
Ternary Complex Signal (Δλ, nm) (KCl 300 mM): 0.96 nm
Binary Complex Signal (Δλ, nm) (KCl 300 mM): 0.47 nm
Fold Enhancement (Ternary/Binary) (KCl 325 mM): 1.97
Fold Enhancement (Ternary/Binary) [12]: 8.97
Ternary Complex Signal (Δλ, nm) [12]: 0.65 nm
Binary Complex Signal (Δλ, nm) [12]: 0.07 nm
Ternary Complex Signal (Δλ, nm) (KCl 325 mM): 0.71 nm
Binary Complex Signal (Δλ, nm) (KCl 325 mM): 0.36 nm
Fold Enhancement (Ternary/Binary) (KCl 350 mM): 3.72
Fold Enhancement (Ternary/Binary) [13]: 7.94
Ternary Complex Signal (Δλ, nm) [13]: 0.54 nm
Binary Complex Signal (Δλ, nm) [13]: 0.07 nm
Ternary Complex Signal (Δλ, nm) (KCl 350 mM): 0.64 nm
Binary Complex Signal (Δλ, nm) (KCl 350 mM): 0.17 nm
Fold Enhancement (Ternary/Binary) (KCl 375 mM): 3.21
Fold Enhancement (Ternary/Binary) [14]: 12.46
Ternary Complex Signal (Δλ, nm) [14]: 0.45 nm
Binary Complex Signal (Δλ, nm) [14]: 0.04 nm
Ternary Complex Signal (Δλ, nm) (KCl 375 mM): 0.49 nm
Binary Complex Signal (Δλ, nm) (KCl 375 mM): 0.15 nm
Fold Enhancement (Ternary/Binary) (KCl 400 mM): 9.48
Fold Enhancement (Ternary/Binary) [15]: 13.75
Ternary Complex Signal (Δλ, nm) [15]: 0.37 nm
Binary Complex Signal (Δλ, nm) [15]: 0.03 nm
Ternary Complex Signal (Δλ, nm) (KCl 400 mM): 0.39 nm
Binary Complex Signal (Δλ, nm) (KCl 400 mM): 0.04 nm
Fold Enhancement (Ternary/Binary) (KCl 425 mM): 85.77
Fold Enhancement (Ternary/Binary) [16]: 13.28
Ternary Complex Signal (Δλ, nm) [16]: 0.31 nm
Binary Complex Signal (Δλ, nm) [16]: 0.02 nm
Ternary Complex Signal (Δλ, nm) (KCl 425 mM): 0.28 nm
Binary Complex Signal (Δλ, nm) (KCl 425 mM): 0.00 nm
Fold Enhancement (Ternary/Binary) (KCl 450 mM): 16.47
Fold Enhancement (Ternary/Binary) [17]: 7.24
Ternary Complex Signal (Δλ, nm) [17]: 0.25 nm
Binary Complex Signal (Δλ, nm) [17]: 0.03 nm
Ternary Complex Signal (Δλ, nm) (KCl 450 mM): 0.19 nm
Binary Complex Signal (Δλ, nm) (KCl 450 mM): 0.01 nm
Fold Enhancement (Ternary/Binary) (KCl 475 mM): 4.89
Fold Enhancement (Ternary/Binary) [18]: 4.54
Ternary Complex Signal (Δλ, nm) [18]: 0.22 nm
Binary Complex Signal (Δλ, nm) [18]: 0.05 nm
Ternary Complex Signal (Δλ, nm) (KCl 475 mM): 0.14 nm
Binary Complex Signal (Δλ, nm) (KCl 475 mM): 0.03 nm
Fold Enhancement (Ternary/Binary) (KCl 500 mM): 2.69
Fold Enhancement (Ternary/Binary) [19]: 2.97
Ternary Complex Signal (Δλ, nm) [19]: 0.21 nm
Binary Complex Signal (Δλ, nm) [19]: 0.07 nm
Ternary Complex Signal (Δλ, nm) (KCl 500 mM): 0.09 nm
Binary Complex Signal (Δλ, nm) (KCl 500 mM): 0.04 nm
salt concentration of maximum signal ratios for ternary over binary complexes (no glutamate salt): about 450 mM
